{"source": "patent US12509734B2", "about": "“Systems and methods to assess microbiomes and treatments thereof” (priority 2013, dated 2025)", "test_system": "vaginal microbiota (PB-primer target groups)", "assay": "PB-qPCR of acute BV and post-tinidazole vaginal lavages (Tables 3A, 3B)", "format": "in vivo, human", "conditions": "for Post-Tinidazole PB-qPCR Cells/sample: post-tinidazole vaginal lavage", "procedure": "DNA extraction. Bacteria were lysed from vaginal lavages by adding sodium hydroxide and sodium dodecyl sulfate to final concentrations of 133 mM and 10% respectively, followed by vigorous reciprocal shaking at room temperature for 30 m. This lysate was then extracted with phenol:chloroform:isoamyl alcohol (25:24:1) then chloroform. The DNA was precipitated with an equal volume of 100% isopropanol, washed once with 70% isopropanol, and dissolved in 100 μl TE (10 mM Tris pH 8, 1 mM EDTA). DNA was stored at −20° C. until further use. […] DNA was amplified from extracts of reference bacterial species as single colonies, using QUICKEXTRACT™ Plant DNA 144 Extraction Solution (Epicentre, Madison, WI), modified by heating at 65° C. for 30 m, 95° C. for 1 m.\nPCR primers, blockers, and amplification. Standard PCR was performed on ROBOCYCLER™ Gradient 96 (Stratagene). Real-time PCR was performed using Cepheid SMARTCYCLER™ or LIGHTCYCLER® 480 II (Roche Applied Sciences) thermal cyclers. The reaction utilized individually optimized amounts of each primer, 250 μM dNTPs (Invitrogen), 20 mM Tris pH 8.3, 3 mM MgCl2, 50 mM KCl, and Taq DNA polymerase, 5 units from either GeneChoice or New England Biolabs, 2.5 units GenScript Green Taq, or 1 unit of glycerol-free Taq DNA polymerase from APEX (Genesee Scientific) per 100 μl reaction volume, including either 0.073×SYBR® Green I Nucleic Acid Stain (FMC Bio Products) or 0.25 μl of 15 μM SYTO9 (Invitrogen) for qPCR reactions.\nCalculation of titers and percent compositions. Cp values from reactions in LIGHTCYCLER® 480 II Real-Time PCR System (Roche Applied Science) were converted to molecules by comparison to Cp values of a standard curve from the same run derived from four to eight 10-fold serial dilutions of an amplicon quantified using the QUANT-IT® assay (Invitrogen). Molecules per μl were converted to cells per 5 ml lavage, assuming an average of five ribosomal genes per cell and proportioned to the ratio of the volume of the lavage used in the DNA prep and its final volume.\nIf the titer of the sample was below the limit of detection for the PB assay, nested PCR on a 24-cycle amplicon from a longer broad-spectrum 16S amplicon was performed (Tables 3A-3D). If the nested PCR was negative, the titer of the original sample was assumed to be 0; if the nested PCR was positive, the titer was reported as below the concentration of most dilute but still positive sample in each specific run. Amplicons were sequenced to verify that targeted species were amplified. Mixed amplicons were cloned into pGEM-T™ easy (Promega) and approximately 10 of the resultant clones sequenced. Percentages were calculated by dividing the titer from each PB by the sum of the titers from all the PB primers.\nFor Tables 3A-3D, titers were determined by qPCR using standard curves and converted to approximate cells/sample as described herein. Primers BU4&BU6 were used alone for the 16S-C&S but the extended set (Table 1) was used for qPCR. Species were identified by Sanger sequencing of either uncloned amplicons, in cases where a single species was dominant for the target group, or by sequencing small numbers of E. coli clones derived from the amplicons if mixed. In silico performance was determined using the RDP website; Target hits is the number of database entries of “good” quality >1200 bp within the target grouping; Total hits is the total number of these hits in the RDP database; Specificity=target/total hits; Total target number=number of RDP entries in the target group; Target coverage=target hits/target number. Notes: uc=uncultured; n.d.=none detected; n.a.=not applicable; t=no subuniversal primer; *=detected by nested PCR only, reporting limit of detection; [ ]=identity; ˜=novel species, closest hit listed. […] 1 min and ended with 72° C. 5 min; ***=excludes ˜⅓ of Clostridium XI; **** performance not determined, showing forward primer only. […]", "data": [{"smiles": "CCS(=O)(=O)CCn1c([N+](=O)[O-])cnc1C", "note": "[tinidazole]", "values": [{"measurement": "Composition of post-tinidazole sample", "setting": "PB-qPCR, FIG. 5B", "result": "dominated by L. iners"}, {"measurement": "Fold higher G. vaginalis in the BV sample compared to post-tinidazole", "setting": "one patient, vaginal lavages", "result": "approximately 10^4 fold"}, {"measurement": "Fold lower titer of L. iners in the acute BV sample compared to post-tinidazole", "setting": "one patient, vaginal lavages", "result": "approximately 20 fold"}, {"measurement": "Post-Tinidazole PB-qPCR Cells/sample", "setting": "target Actinobacteridae", "result": "5.7E+04", "unit": "Cells/sample"}, {"measurement": "Post-Tinidazole PB-qPCR Cells/sample", "setting": "target Bacteroidaceae/uc Prevotellaceae", "result": "4.7E+06", "unit": "Cells/sample"}, {"measurement": "Post-Tinidazole PB-qPCR Cells/sample", "setting": "target Beta-Proteobacteria", "result": "2.6E+04", "unit": "Cells/sample"}, {"measurement": "Post-Tinidazole PB-qPCR Cells/sample", "setting": "target Broad-spectrum (BU4L/BU6R)", "result": "1.4E+10", "unit": "Cells/sample"}, {"measurement": "Post-Tinidazole PB-qPCR Cells/sample", "setting": "target Clostridiales Incertae Sedis XI", "result": 0, "unit": "Cells/sample"}, {"measurement": "Post-Tinidazole PB-qPCR Cells/sample", "setting": "target Clostridiales Incertae Sedis XII", "result": "5.5E+03", "unit": "Cells/sample"}, {"measurement": "Post-Tinidazole PB-qPCR Cells/sample", "setting": "target Coriobacteridae", "result": "4.0E+04", "unit": "Cells/sample"}, {"measurement": "Post-Tinidazole PB-qPCR Cells/sample", "setting": "target Cross-family Clostridia", "result": "3.9E+03", "unit": "Cells/sample"}, {"measurement": "Post-Tinidazole PB-qPCR Cells/sample", "setting": "target Enterobacteriales, Pasteurellales, Pseudomonadaceae", "result": "2.9E+03", "unit": "Cells/sample"}, {"measurement": "Post-Tinidazole PB-qPCR Cells/sample", "setting": "target Fusobacterium", "result": "2.9E+02", "unit": "Cells/sample"}, {"measurement": "Post-Tinidazole PB-qPCR Cells/sample", "setting": "target Lachnospiracea uc & incertae sedis, Clostridium IVa, Roseburia", "result": "2.8E+05", "unit": "Cells/sample"}, {"measurement": "Post-Tinidazole PB-qPCR Cells/sample", "setting": "target Lactobacillaceae", "result": "8.4E+09", "unit": "Cells/sample"}, {"measurement": "Post-Tinidazole PB-qPCR Cells/sample", "setting": "target Megasphaera/Dialister/Veillonella", "result": "1.8E+03", "unit": "Cells/sample"}, {"measurement": "Post-Tinidazole PB-qPCR Cells/sample", "setting": "target Mobiluncus", "result": 0, "unit": "Cells/sample"}, {"measurement": "Post-Tinidazole PB-qPCR Cells/sample", "setting": "target Mycoplasmatales", "result": "8.3E+04", "unit": "Cells/sample"}, {"measurement": "Post-Tinidazole PB-qPCR Cells/sample", "setting": "target Peptostreptococcaceae", "result": 0, "unit": "Cells/sample"}, {"measurement": "Post-Tinidazole PB-qPCR Cells/sample", "setting": "target Staphylococcus", "result": "1.0E+05", "unit": "Cells/sample"}, {"measurement": "Post-Tinidazole PB-qPCR Cells/sample", "setting": "target Streptococcus", "result": "8.1E+05", "unit": "Cells/sample"}, {"measurement": "Post-Tinidazole PB-qPCR Cells/sample", "setting": "target uc Clostridiales (BVAB2&3 subset)", "result": 0, "unit": "Cells/sample"}]}]}
